Measured values published in US20240315993A1, “ANTIPARASITIC COMPOUNDS” (Intervet Inc., priority 2021, published 2024).
Like-named read-outs stand apart in the source and are kept apart here.

Tests used:
[1] = system: Mobile stages of sea lice (pre-adults, adults of Lepeophtheirus salmonis); assay: Adult sea lice contact assay; conditions: read-out: EC50 (sea lice inhibition, dead+damaged)
Description: Mobile stages of sea lice (i.e., pre-adults, adults of Lepeophtheirus salmonis) were exposed to seawater spiked with declining concentrations of a test compound (dissolved in a PEG sea-water mixture). Sea lice inhibition (% of dead+damaged sea lice) was assessed after approximately 1 and 24 hours of continuous exposure in comparison to a negative (solvent) control group.

[2] = system: Rhipicephalus appendiculatus; assay: Cattle - efficacy against multi-host ticks (Rhipicephalus appendiculatus); assay type: in vivo
Description: (§1) Cattle were treated subcutaneously or topically (pour-on) at a dose of 5 mg/kg bodyweight of a test compound (Day 0). As subcutaneous formulation NMP 60%/PEG300 40% was used, and as pour-on formulation DMA 92%/DEET 8% was used. Cattle of the negative control group received only the formulation excipients of both formulations (SC, pour-on).
(§2) Cattle were locally infested with 30 to 40 unfed adult ticks each of Rhipicephalus appendiculatus and Dermacenter variabilis (for both species sex ratio 1:1), by placing the ticks in an ear sleeve (R. appendiculatus) or a stockinet patch attached to the body side (D. variabilis) once before treatment, and at different time points after treatment. Free (i.e., non-attached ticks) were removed from ear sleeves/stockinet patches two days after each infestation and were excluded from the efficacy calculation.
(§3) Compounds with efficacy ≥80 percent were found active.

[3] = system: Copepodids (juvenile sea lice stage of Lepeophtheirus salmonis); assay: Juvenile sea lice contact assay; conditions: Lepeophtheirus salmonis, read-out: Sea lice inhibition (% of dead+damaged copepodids)
Description: Copepodids (juvenile sea lice stage of Lepeophtheirus salmonis) were exposed to seawater spiked with declining concentrations of a test compound (dissolved in a DMSO sea-water mixture). Sea lice inhibition (% of dead+damaged copepodids) was assessed after approximately 24 hours of continuous exposure. The vitality of used parasites was confirmed in a negative (solvent) control group.

[4] = system: bed bugs (Cimex lectularius); assay: Guinea pig - efficacy against bed bug; assay type: in vivo
Description: (§4) Guinea pigs were locally co-infested (using an infestation device on a shaved skin area) with juvenile soft ticks (Ornithodoros moubata) and bed bugs (Cimex lectularius) before the treatment day (Day 0) to provide a baseline-negative control value. Guinea pigs were treated orally (by gavage) or subcutaneously at a dose of 5 mg/kg bodyweight of a test compound in a formulation of 10% DMF/Emulsifier+90% Aqua ad injectabilia.
(§5) Repeated local infestations with both parasites were performed at different time points after treatment. Within approximately 45 min after each infestation ten engorged ticks and ten engorged bed bugs were • collected and the percentage of dead and damaged parasites per species were • assessed approximately 24 hours following collection. The efficacy was • calculated as % of inhibition ‘killed+damaged’ parasites in a treated group in comparison to the baseline-negative control (using a modified Schneider Orelli's formula).
(§6) Results: Activity of the test compounds at different evaluation time-points (≥80% inhibition were found active): […]

Dermacenter variabilis = assay: Cattle - efficacy against multi-host ticks (Dermacenter variabilis); assay type: in vivo
Description: as §1, §2, §3

[5] = system: larvae of Rhipicephalus microplus isolates with known resistance profiles; assay: Tick larvae resistance assay (larval immersion test, LIT)
Description: A tick resistance assay (i.e., larval immersion test, LIT) was carried out using larvae of several Rhipicephalus microplus isolates with known resistance profiles (i.e.: fully susceptible; resistant to dieldrin, coumaphos, DDT, chlorpyriphos, flumethrin, cypermethrin, amitraz, fluazuron).
Tick larvae (Rhipicephalus microplus) were immersed for approximately 3 minutes in test compound solution. Tick mortality was assessed approximately 24 hours after contact exposure. The vitality of used parasites was confirmed in negative control groups (i.e., an untreated control and a solvent control).

Rhipicephalus microplus = assay: Cattle - efficacy against one-host tick; assay type: in vivo; conditions: 1 mg/kg topical (Compound 4: spray solution; others: DMA 92%/DEET 8% pour-on)
Description: Cattle were infested (whole body) with up to 3000 Rhipicephalus microplus larvae two or three times per week before and after the treatment day (Day 0). Cattle of treatment groups were treated subcutaneously or topically (spray or pour-on) at a dose of 1 mg/kg bodyweight of a test compound. As subcutaneous formulation either 2-pyrrolidon 50%/Tween 80 50% or NMP 60%/PEG300 40% was used. As topical formulation either a spray solution (DMF/Emulsifier 2%/tap water 98%) (Compound 4) or a DMA 92%/DEET 8% pour-on solution (all other compounds) or a pour-on solution containing Imwitor 988 (20%)+Miglyol 840 (QS) (Compound 453 and Compound 466) or a pour-on solution containing Miglyol 840 (QS) (Compound 453) was used. Cattle of the negative control group received only the formulation excipients of the respective administration route.
Fully engorged female ticks dropping from cattle were collected daily after treatment and counted in treatment and control groups. Efficacy was expressed using the standard ADEQ analysis method (ADEQ calculation in accordance with WAAVP guidelines for evaluating the efficacy of acaricides against ticks on ruminants; Veterinary parasitology 136 (2006) 29-43). Compounds with efficacy ≥80 percent were found active/effective. Onset of efficacy means the first Day with efficacy ≥80 percent. Duration of efficacy means the last Day with efficacy ≥80 percent.

[6] = system: juvenile soft ticks (Ornithodoros moubata); assay: Guinea pig - efficacy against argaside tick; assay type: in vivo; conditions: for duration of efficacy, subcutaneous compared with oral administration: 5 mg/kg, ticks and bed bugs
Description: as §4, §5, §6

[7] = 5 mg/kg subcutaneous, re-infested after 7 days
[8] = 5 mg/kg subcutaneous, re-infested after 14 days
[9] = 5 mg/kg subcutaneous, re-infested after 21 days
[10] = 5 mg/kg subcutaneous, therapeutic, Day 2
[11] = 5 mg/kg topical pour-on, re-infested after 7 days
[12] = 5 mg/kg topical pour-on, re-infested after 14 days
[13] = 5 mg/kg topical pour-on, re-infested after 21 days
[14] = 5 mg/kg topical pour-on, re-infested after 28 days
[15] = 5 mg/kg subcutaneous, after 7 days
[16] = 5 mg/kg subcutaneous, after 10 days
[17] = 5 mg/kg subcutaneous, after 14 days
[18] = 5 mg/kg subcutaneous, after 17 days
[19] = 5 mg/kg subcutaneous, re-infested after 28 days
[20] = 5 mg/kg topical pour-on, re-infested after 35 days
[21] = 5 mg/kg topical pour-on, therapeutic, Day 2
[22] = 5 mg/kg, both administration routes (topical, subcutaneous)

O=C(Nc1ccc(F)cc1)c1cc(NC(=O)[C@H]2[C@H](c3cc(Cl)cc(Cl)c3)C2(Cl)Cl)ccc1F [Compound 446]
0.48 ppm: LC50 ([5]; isolate resistant to Coumaphos, Flumethrin, Cypermethrin, Amitraz)
47 days: duration of efficacy (last Day with efficacy ≥80 percent) (Rhipicephalus microplus)
prophylactic efficacy: efficacy ≥80 percent against Rhipicephalus appendiculatus [2, 7] | efficacy ≥80 percent against Rhipicephalus appendiculatus [2, 8] | efficacy ≥80 percent against Rhipicephalus appendiculatus [2, 9] | efficacy ≥80 percent against Rhipicephalus appendiculatus [2, 11] | efficacy ≥80 percent against Rhipicephalus appendiculatus [2, 12] | efficacy ≥80 percent against Rhipicephalus appendiculatus [2, 13] | efficacy ≥80 percent against Rhipicephalus appendiculatus [2, 14] | efficacy ≥80 percent against Dermacenter variabilis (Dermacenter variabilis; [7]) | efficacy ≥80 percent against Dermacenter variabilis (Dermacenter variabilis; [8]) | efficacy ≥80 percent against Dermacenter variabilis (Dermacenter variabilis; [9]) | efficacy ≥80 percent against Dermacenter variabilis (Dermacenter variabilis; [19]) | efficacy ≥80 percent against Dermacenter variabilis (Dermacenter variabilis; [11]) | efficacy ≥80 percent against Dermacenter variabilis (Dermacenter variabilis; [12]) | efficacy ≥80 percent against Dermacenter variabilis (Dermacenter variabilis; [13]) | efficacy ≥80 percent against Dermacenter variabilis (Dermacenter variabilis; [14]) | efficacy ≥80 percent against Dermacenter variabilis (Dermacenter variabilis; [20])
100%: inhibition at 0.001 µM ([3]; 24 h)
immediate activity: activity against bed bugs (≥80% inhibition, killed+damaged) ([4]; 5 mg/kg oral, Day 0) | activity against bed bugs (≥80% inhibition, killed+damaged) ([4]; 5 mg/kg subcutaneous, Day 0) | activity against tick nymphs (≥80% inhibition, killed+damaged) ([6]; 5 mg/kg oral, Day 0) | activity against tick nymphs (≥80% inhibition, killed+damaged) ([6]; 5 mg/kg subcutaneous, Day 0)
activity: activity against bed bugs (≥80% inhibition, killed+damaged) ([4]; 5 mg/kg oral, after 7 days) | activity against bed bugs (≥80% inhibition, killed+damaged) [4, 15] | activity against bed bugs (≥80% inhibition, killed+damaged) [4, 16] | activity against bed bugs (≥80% inhibition, killed+damaged) [4, 17] | activity against bed bugs (≥80% inhibition, killed+damaged) [4, 18] | activity against bed bugs (≥80% inhibition, killed+damaged) ([4]; 5 mg/kg subcutaneous, after 21 days) | activity against bed bugs (≥80% inhibition, killed+damaged) ([4]; 5 mg/kg subcutaneous, after 24 days) | activity against tick nymphs (≥80% inhibition, killed+damaged) [6, 15] | activity against tick nymphs (≥80% inhibition, killed+damaged) [6, 16] | activity against tick nymphs (≥80% inhibition, killed+damaged) [6, 17] | activity against tick nymphs (≥80% inhibition, killed+damaged) [6, 18]
3 days: onset of efficacy (first Day with efficacy ≥80 percent) (Rhipicephalus microplus)
≤ 10 nM: EC50 [1]
0.344 ppm: LC50 ([5]; isolate: Fully susceptible)
0.463 ppm: LC50 ([5]; isolate resistant to DDT, Dieldrin, Coumaphos, Chlorpyriphos)
0.353 ppm: LC50 ([5]; isolate resistant to Coumaphos, Flumethrin, Cypermethrin)
longer duration of efficacy: duration of efficacy, subcutaneous compared with oral administration [6]
0.31 ppm: LC50 ([5]; isolate resistant to DDT, Dieldrin, Coumaphos)
0.322 ppm: LC50 ([5]; isolate resistant to Dieldrin, Coumaphos, Fluazuron)
therapeutic efficacy: efficacy ≥80 percent against Rhipicephalus appendiculatus [2, 10] | efficacy ≥80 percent against Dermacenter variabilis (Dermacenter variabilis; [10]) | efficacy ≥80 percent against Dermacenter variabilis (Dermacenter variabilis; [21])

O=C(Nc1ccc(F)cc1F)c1cc(NC(=O)[C@H]2[C@H](c3cc(Cl)cc(Cl)c3)C2(Cl)Cl)ccc1F [Compound 447]
≥ 57 days: duration of efficacy (last Day with efficacy ≥80 percent) (Rhipicephalus microplus)
4 days: onset of efficacy (first Day with efficacy ≥80 percent) (Rhipicephalus microplus)
immediate activity: activity against bed bugs (≥80% inhibition, killed+damaged) ([4]; 5 mg/kg oral, Day 0) | activity against bed bugs (≥80% inhibition, killed+damaged) ([4]; 5 mg/kg subcutaneous, Day 0) | activity against tick nymphs (≥80% inhibition, killed+damaged) ([6]; 5 mg/kg oral, Day 0) | activity against tick nymphs (≥80% inhibition, killed+damaged) ([6]; 5 mg/kg subcutaneous, Day 0)
prophylactic efficacy: efficacy ≥80 percent against Rhipicephalus appendiculatus [2, 9] | efficacy ≥80 percent against Rhipicephalus appendiculatus [2, 11] | efficacy ≥80 percent against Rhipicephalus appendiculatus [2, 12] | efficacy ≥80 percent against Rhipicephalus appendiculatus [2, 14] | efficacy ≥80 percent against Rhipicephalus appendiculatus [2, 20] | efficacy ≥80 percent against Dermacenter variabilis (Dermacenter variabilis; [7]) | efficacy ≥80 percent against Dermacenter variabilis (Dermacenter variabilis; [19]) | efficacy ≥80 percent against Dermacenter variabilis (Dermacenter variabilis; [11]) | efficacy ≥80 percent against Dermacenter variabilis (Dermacenter variabilis; [14])
100%: effective in treating existing tick infestations [2, 22] | inhibition at 0.01 µM ([3]; 10 nM in seawater, ~24 h) | effective in treating existing tick infestations (Dermacenter variabilis; [22])
longer duration of efficacy: duration of efficacy, subcutaneous compared with oral administration [6]
activity: activity against bed bugs (≥80% inhibition, killed+damaged) ([4]; 5 mg/kg oral, after 7 days) | activity against bed bugs (≥80% inhibition, killed+damaged) [4, 15] | activity against bed bugs (≥80% inhibition, killed+damaged) [4, 16] | activity against tick nymphs (≥80% inhibition, killed+damaged) ([6]; 5 mg/kg oral, after 7 days) | activity against tick nymphs (≥80% inhibition, killed+damaged) [6, 15] | activity against tick nymphs (≥80% inhibition, killed+damaged) [6, 16] | activity against tick nymphs (≥80% inhibition, killed+damaged) [6, 17] | activity against tick nymphs (≥80% inhibition, killed+damaged) [6, 18]
therapeutic efficacy: efficacy ≥80 percent against Rhipicephalus appendiculatus [2, 10] | efficacy ≥80 percent against Rhipicephalus appendiculatus [2, 21] | efficacy ≥80 percent against Dermacenter variabilis (Dermacenter variabilis; [10]) | efficacy ≥80 percent against Dermacenter variabilis (Dermacenter variabilis; [21])
≤ 10 nM: EC50 ([1]; pre-adults/adults, assessed after ~1 and 24 h)
